Data from patent US11820822B2, “Methods for sensitizing cancer cells to T cell-mediated killing by modulating molecular pathways” (DANA-FARBER CANCER INSTITUTE, INC., priority 2017, dated 2023).

Assays:
[1] = system: B16F10-Cas9 cells co-cultured with Pmel-1 T cells; test: Genome-scale CRISPR-Cas9 screen, selection with Pmel-1 T cells; type: cell-based, mouse; settings: Table 3; B16F10-Cas9 cells pre-treated with IFNγ, co-cultured with Pmel-1 T cells 1:1 for three days; negative = depleted, positive = enriched
[2] = system: B16F10-Cas9 cells pulsed with SIINFEKL peptide, co-cultured with OT-I T cells; test: Genome-scale CRISPR-Cas9 screen, selection with OT-I T cells; type: cell-based, mouse; settings: Table 3; B16F10-Cas9 cells pulsed with SIINFEKL, co-cultured with OT-I T cells 1:1 for one day; negative = depleted, positive = enriched

Sequence | Pmel+ (sgRNA Log(2) fold change, Pmel-1 selection versus control T cells) [1] | OT1 (sgRNA Log(2) fold change, OT-I selection versus control T cells) [2]
GAAGACCAAAGAAGTTCATG (chemistry not fully specified) | 2.37 | -0.52
GAAGTAAAGGGATTTAACAG (chemistry not fully specified) | -0.84 | -2.59
GAATACGAAGCAGAAAAGGT (chemistry not fully specified) | 0.00 | -2.50
GAATCCTCCAGAAGGAATCG (chemistry not fully specified) | 2.99 | 0.26
GAATCTGAATGGAGGAACCT (chemistry not fully specified) | 0.00 | -2.21
GAATGATATTATAGCGACGA (chemistry not fully specified) | 0.59 | -2.20
GAATTGCAACGCCCACACCG (chemistry not fully specified) | 0.39 | -3.93
GACAAGATGACAAACCTGGT (chemistry not fully specified) | 3.45 | 1.65
GAGATCTGCACATTCCGCAC (chemistry not fully specified) | -0.78 | -2.69
GAGTTGCAGCCAGATACGCG (chemistry not fully specified) | -1.28 | -3.25
GATATGCTACAGGACCTTCG (chemistry not fully specified) | 0.44 | -2.83
GATGTGTCCCTAGTCTACCG (chemistry not fully specified) | -0.24 | -3.40
GCAAATGTAGAAATGTCGTG (chemistry not fully specified) | -0.65 | -2.34
GCAAGAGGTTATCAAACACG (chemistry not fully specified) | -0.79 | -2.17
GCACTGCTCTCATAACCCAT (chemistry not fully specified) | 3.01 | -0.77
GCAGGGGTCTCCTTATGTCG (chemistry not fully specified) | -1.13 | -2.67
GCCAACATCTGCTTACTCGC (chemistry not fully specified) | -1.97 | -2.55
GCCAGCTTTCTCGCACGTGG (chemistry not fully specified) | -2.01 | -0.61
GCCCTTTACTTTCAGTACGG (chemistry not fully specified) | -0.93 | -2.52
GCCTGTACCACGCAGCCAAG (chemistry not fully specified) | 0.00 | -2.37
GCGTCGTCGACTTATGACTT (chemistry not fully specified) | -0.05 | -3.36
GCTCAAGTACTCGCCCGACC (chemistry not fully specified) | -0.69 | -2.85
GCTCACCACGGGCTGCAACG (chemistry not fully specified) | 2.34 | 0.43

Sequence | Pmel+ (sgRNA Log(2) fold change, Pmel-1 selection versus control T cells) [1] | OT1 (sgRNA Log(2) fold change, OT-I selection versus control T cells) [2]
GCTCGATGGATAGCATTCAC (chemistry not fully specified) | 0.17 | -3.98
GCTGCAGAGGCAGTTTGATG (chemistry not fully specified) | -0.70 | -3.06
GCTGCCCCGCAGGATCATCA (chemistry not fully specified) | -2.00 | -2.94
GCTGGGGAACTCAATTATAG (chemistry not fully specified) | 2.03 | -0.78
GCTGTGGGGACTGCTAAAAG (chemistry not fully specified) | 2.22 | -1.12
GCTGTTACTCCAGAGACACA (chemistry not fully specified) | -2.27 | -0.23
GGAAACGTGGCATGTCTCGG (chemistry not fully specified) | 2.66 | 1.93
GGAATCCCTGTGCTGATCGT (chemistry not fully specified) | -0.49 | -2.76
GGACAAGACATGGAGACAGA (chemistry not fully specified) | 0.83 | -2.11
GGACACCAAGTTATTCCGTG (chemistry not fully specified) | -2.89 | -3.20
GGACGAGAGCAACATAAACA (chemistry not fully specified) | 2.15 | -0.03
GGATAGACGCCCAGCCACTG (chemistry not fully specified) | 9.31 | 3.32
GGATCCTGGCGATTCAACAT (chemistry not fully specified) | 0.74 | -3.11
GGCCCCGACTCAGACCCGCG (chemistry not fully specified) | 3.60 | 5.15
GGTATTCCCAGCATACGACA (chemistry not fully specified) | 5.25 | 3.32
GGTCATACTTAAAAGCACAA (chemistry not fully specified) | -0.81 | -2.07
GGTTCCTTGCGGGACTCCGT (chemistry not fully specified) | -2.53 | -3.31
GGTTCGCTTCTTCCAAACCA (chemistry not fully specified) | -2.08 | -2.41
GTAGACAACAACATTCGCAG (chemistry not fully specified) | 2.97 | 0.33
GTATAAGCCATTACGACGCA (chemistry not fully specified) | -1.52 | -2.81
GTCTCTAGCAAAGTCCACGC (chemistry not fully specified) | 3.25 | -0.40
GTCTTGTGCAAAAAGCCCGA (chemistry not fully specified) | -0.15 | -2.54
